Laboratory results: patent publication US20030219831A1, “Split-hybrid system” (priority 2002, published 2003)

Experiments:
Type in all cases: cell-based
[1] = system: Gal-TK-Luc; assay: Specificity control, Gal-TK-Luc by itself or with co-transfection controls; conditions: Gal-TK-Luc by itself or with controls Gal4N-Mad, Gal4N-IDII and NLS-HA-Mad-RAR
Text: (§1) Next, two fusion proteins, NLS (nuclear localization signal)-HA (hemagglutinin)-Mad-RAR and Gal4N-IDII, were co-expressed in a cell containing a Gal-TK-Luc reporter gene construct. Unexpectedly, interactions between RAR and IDII led to a ˜7.5 fold repression of the reporter gene activity.

[2] = system: interactions of Gal4N-IDII with SMRT-RAR; assay: Split-hybrid system, SMRT-RAR and Gal4N-IDII with Gal-RSV-Luc; conditions: Gal-RSV-Luc, 8.5-fold repression without compound
Text: Next, two fusion proteins, SMRT-RAR and Gal4N-IDII, were co-expressed in a cell containing a Gal-RSV-Luc reporter gene construct. Unexpectedly, interactions of Gal4N-IDII with SMRT-RAR conferred 8.5-fold repression. This repression was reversed by retinoid acid treatment.

[3] = system: interactions between RAR and IDII; assay: Two-hybrid reporter assay, VP16-RAR and Gal4N-IDII co-expressed with Gal-TK-Luc; conditions: 1 mM retinoid acid; VP16-RAR + Gal4N-IDII, Gal-TK-Luc; ~120 fold without compound
Description: Two fusion proteins, VP16-RAR and Gal4N-IDII, were co-expressed in a cell containing a Gal-TK-Luc reporter gene construct. Unexpectedly, interactions between RAR and IDII led to a ˜120 fold induction of the reporter gene activity. In contrast, in the presence of 1 mM retinoid acid, interactions of IDII with RAR were blocked and induction of the reporter gene activity was reduced to only ˜7 fold.

[4] = system: interactions between RAR and IDII; assay: Retinoid acid split-hybrid system, NLS-HA-Mad-RAR and Gal4N-IDII with Gal-TK-Luc; design: dose or concentration left out as unconfirmed; conditions: Gal-TK-Luc, ~7.5 fold repression without compound
Text: as §1

[5] = system: RAR and IDI1; assay: Split-hybrid system with RED1 reporter, RAR and IDII; conditions: in the presence of retinoid acid

With CC1=C(/C=C/C(C)=C/C=C/C(C)=C/C(=O)O)C(C)(C)CCC1 [retinoid acid] the “alteration of reporter gene activity of Gal-TK-Luc” value [1] was “did not significantly alter”, the “reversal of repression of the reporter gene” value [2] was “reversed” and the “induction of the reporter gene activity” value [3] was roughly 7 fold. For the same compound, the “reversal of repression of the reporter gene activity” value [4] was “completely reversed” and the “red fluorescence from RED1 reporter” value [5] was “detected”.
